{"source": "patent US11434222B2", "about": "“MAGL inhibitors” (H. LUNDBECK A/S, priority 2020, dated 2022)", "key": {"[1]": {"test": "Kinetic solubility in PBS", "format": "physicochemical", "conditions": "aqueous buffer, kinetic from dmso stock", "outline": "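Solubility measured in PBS at pH 2.0 and pH 7.4, in duplicate, starting from 10 mM DMSO stock; shaken 2 h at RT at 1,100 RPM. Filtrate diluted and quantified by LC-MS/MS (positive MRM) against a DMSO standard of known concentration.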"}, "[2]": {"biological_target": "T1, MAGL (Mus musculus, UniProt O35678)", "T1 construct": "brain proteomes were prepared and analyzed according to previously established methods; from tissue; host or cells: brain of wild-type C57Bl/6J mice", "T1 sequence (O35678 1-303)": "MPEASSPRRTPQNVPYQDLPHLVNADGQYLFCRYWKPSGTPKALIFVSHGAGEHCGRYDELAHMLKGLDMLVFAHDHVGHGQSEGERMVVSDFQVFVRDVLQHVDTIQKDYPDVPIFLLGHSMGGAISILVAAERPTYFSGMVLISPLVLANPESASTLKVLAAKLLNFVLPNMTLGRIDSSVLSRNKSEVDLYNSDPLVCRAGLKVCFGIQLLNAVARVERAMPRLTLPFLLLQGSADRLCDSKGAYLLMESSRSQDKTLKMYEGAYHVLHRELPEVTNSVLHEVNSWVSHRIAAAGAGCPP", "test": "In vivo MAGL inhibition in mouse brain proteomes after oral gavage", "conditions": "5 mg/kg oral gavage, 4 h after administration, read-out: MAGL % inh. 5 mg/kg (mouse)", "method": "Inhibitors were administered to wild-type C57B1/6J by oral gavage in a vehicle of polyethylene glycol. Each animal was sacrificed 4 h following administration and brain proteomes were prepared and analyzed according to previously established methods (See Niphakis, M. J., et al. (2011) ACS Chem. Neurosci. and Long, J. Z., et al. Nat. Chem. Biol. 5:37-44)."}, "[3]": {"test": "Rat Kp, brain disposition after oral gavage", "format": "in vivo", "method": "(§1) Brain disposition was evaluated in male Sprague-Dawley rats (n=3, standard body weight). Briefly, test compound was formulated as a simple suspension, in 0.5% HPMC in water, then administered by oral gavage (5 mg/kg, 5 mL/kg). Four hours post dosing, rats were sacrificed, and terminal blood and brain samples were taken. Blood was obtained via cardiac puncture (0.1 mL) and was added into 0.4 mL CH3CN for precipitation immediately. The samples were stored at −75+/−15° C. prior to analysis. Brain tissue samples were collected after animals were fully exsanguinated, and the tissues were washed with cold saline quickly. After sectioning, brain sections were immediately frozen in liquid nitrogen and stored at −75+/−15° C. prior to analysis. Blood and brain samples were analyzed by LC/MS/MS using an optimized analytical method. Concentrations of test compound in blood and brain were quantified against matrix matched calibration standards. The total blood, plasma, and brain concentration data are presented in Table 2 alongside the calculated brain Kp (total brain concentration:total plasma concentration ratio), the calculated brain kp,uu (unbound brain concentration:unbound plasma concentration ratio), the free fractions in rat plasma and brain, and the in vitro rat blood to plasma distribution profile. The total plasma concentration data were calculated from the total blood concentration data using rat blood to plasma ratio which was measured in vitro (1 μM test compound). For kp,uu determination, the free fraction in rat plasma and brain homogenate were measured in vitro by standard equilibrium dialysis (1 μM test compound and 6 h equilibration against buffer pH 7.4; for rat plasma analysis, 100 mM stock solution of diisopropyl fluorophosphate was added to the pre-warmed rat plasma prior to adding test article)."}, "[4]": {"test": "In vitro rat blood to plasma ratio", "format": "in vitro ADME", "conditions": "1 μM test compound", "method": "as §1"}, "[5]": {"test": "In vitro human hepatocyte stability", "format": "in vitro ADME", "conditions": "cryopreserved human hepatocytes (pooled donor), human hepatocytes 0.5×10^6 cells/mL, read-out: Scaled-up unbound CLint", "method": "The metabolic stability of test articles (1 μM) in commercially sourced, pooled donor, cryopreserved human hepatocytes (0.5×10^6 cells/mL) was determined in duplicate. The CLint reactions (250 μL) were initiated by addition of test compound. Aliquots (25 μL) were taken at 0, 15, 30, 45, 60, 90, 120 and 240 minutes and then protein crashed with ice-cold acetonitrile containing internal standard then centrifuged (3220 g for 25 minutes). Supernatant was used for LC-MS/MS analysis. The in vitro half-life (in vitro t1/2) was determined from the slope value: in vitro t1/2=−0.693/k. Conversion of the in vitro t1/2 (in min) into the scale-up unbound intrinsic clearance (Scaled-up unbound CLint, in mL/min/kg) was done using the following equation (mean of duplicate determinations), with data shown in Table 5: Scaled-up unbound CLint=kV/N×scaling factor. V=incubation volume (0.25 mL); N=number of hepatocytes per well ([…]). Scaling factors for in vivo intrinsic clearance prediction are listed below: […]"}, "[6]": {"test": "Thermodynamic solubility in PBS", "format": "physicochemical", "conditions": "aqueous buffer, thermodynamic from solid; PBS pH 7.4; 24 hours at RT", "method": "The thermodynamic solubility of test article was determined in PBS at pH 7.4 in duplicate. The test article (1.5 mg) in PBS was incubated for 24 hours at RT with shaking at 1100 rpm. Sample was then filtered using a vacuum manifold, diluted, and analyzed by LC-MS/MS. Chromatographic conditions: Phenomenex Synergi 4μ Hydro-PR 80A column (2.0×30 mm) coupled with pre-guard column; mobile phase=0.1% formic acid in acetonitrile and 0.1% formic acid in water; flowrate=0.65 mL/min; column temperature=40 degrees C.; injection volume: 10 μL.\nMobile phase: 0.1% formic acid in acetonitrile (A) and 0.1% formic acid in water (B)\nMass conditions: Turbo spray ion source; ESI ionization model; MRM scan type; Collison gas=6 L/min; Curtain gas=30 L/min; Nebulize gas=50 L/min; Auxiliary gas=50 L/min; Temperature=500 degrees C.; Ion spray voltage=+5500 v (positive MRM).\nThe filtered solution was analyzed and quantified against a standard of known concentration in DMSO using UPLC coupled with mass spectral peak identification and quantitation. Solubility values of the test articles were calculated using Microsoft Excel as follows (DF is the dilution factor): […]"}, "[7]": {"test": "Free fraction in rat plasma and brain homogenate by equilibrium dialysis", "format": "in vitro ADME", "method": "as §1"}, "[8]": {"conditions": "5 mg/kg oral gavage, 4 h post dosing, mean n = 3"}}, "note": "Where two headings read alike, the source gives them in different places."}
{"smiles": "O=C(Nc1cccnc1)[C@H]1CC12CCN(C(=O)OC(C(F)(F)F)C(F)(F)F)CC2", "note": "(single isomer, unassigned) [Example 2]", "values": [{"measurement": "solubility kinetic at 2 h", "setting": "[1]; PBS pH 2.0, RT, read-out: pH 2 Solubility (kinetic)", "value": 30.3, "unit": "µM"}, {"measurement": "solubility kinetic at 2 h", "setting": "[1]; PBS pH 7.4, RT, read-out: pH 7.4 Solubility (kinetic)", "value": 189, "unit": "µM"}, {"measurement": "inhibition at 5 mg/kg", "setting": "[2]", "value": 100, "unit": "%"}, {"measurement": "Total plasma concentration", "setting": "[3]; 5 mg/kg oral gavage, 4 h, calculated from total blood concentration using blood to plasma ratio", "value": 0.066, "unit": "µM"}, {"measurement": "Total blood concentration", "setting": "[3]; [8]", "value": 0.049, "unit": "µM"}, {"measurement": "Total brain concentration", "setting": "[3]; [8]", "value": 0.199, "unit": "µM"}, {"measurement": "Kp at 4 h", "setting": "[3]; male, Sprague-Dawley, po, total brain concentration:total plasma concentration ratio, 5 mg/kg p.o., 4 h", "value": 3.01}, {"measurement": "Kp uu at 4 h", "setting": "[3]; male, Sprague-Dawley, po, unbound brain concentration:unbound plasma concentration ratio, 5 mg/kg p.o., 4 h", "value": 0.925}, {"measurement": "blood plasma ratio at 1 μM", "setting": "[4]", "value": 0.833}, {"measurement": "CLint scaled at 1 μM", "setting": "[5]", "value": 34.8, "unit": "mL/min/kg"}, {"measurement": "solubility thermodynamic at 24 h", "setting": "[6]", "value": 91.8, "unit": "µg/mL"}, {"measurement": "fraction unbound at 6 h, 1 μM", "setting": "[7]; rat brain homogenate, buffer pH 7.4, read-out: Rat brain free fraction", "value": 0.024}, {"measurement": "fraction unbound at 6 h, 1 μM", "setting": "[7]; rat plasma, buffer pH 7.4, read-out: Rat plasma free fraction", "value": 0.078}]}
